The assay deals with T1, adenosine A2A receptor (Rattus norvegicus, UniProt P30543).
T1 construct: from tissue; host or cells: rat corpus striatum, washed membrane suspension
Put plainly: Adenosine receptor binding activity (adenosine A2A receptor binding test), 3H-CGS 21680 binding. Conditions: 2 h, read-out: A2A receptor inhibition ratio (%); for inhibition at 0.1 µM: 10^-7 M; for inhibition at 0.01 µM: 10^-8 M. As to the method:
Adenosine receptor binding activity (adenosine A2A receptor binding test) This test was carried out by slightly modifying the method of Bruns et al. [Molecular Pharmacology, 29: 331 (1986)].
Corpus striatum of a rat was suspended in an ice-cooled 50 mM tris(hydroxymethyl)aminomethane hydrochloride (hereinafter referred to as "Tris-HCl") buffer (pH 7.7) using Polytron Homogenizer (manufactured by Kinematica Co.). The suspension was centrifuged (50,000×g, 10 minutes), and the obtained precipitate was re-suspended in the same amount of 50 mM Tris-HCl buffer. The suspension was centrifuged under the same conditions, and the final precipitate was suspended in 50 mM Tris-HCl [containing 10 mM magnesium chloride and 0.02 unit/mg tissue of adenosine deaminase (manufactured by Sigma Co.)] to give a tissue concentration of 5 mg (wet weight)/ml.
To 1 ml of the tissue suspension thus prepared were added 50 μl of tritium-labeled CGS 21680 {^3 H-2-[p-(2-carboxyethyl)phenethylamino]-5'-N-ethylcarboxamido)adenosine: 40 Ci/mmol; manufactured by New England Nuclear Co.[The Journal of Pharmacology and Experimental Therapeutics, 251: 888 (1989)]} (final concentration:4.0 nM) and 50 μl of a test compound. The resulting mixture was allowed to stand for 120 minutes at 25° C., and then rapidly filtered by suction through a glass fiber filter (GF/C, manufactured by Whatman Co.) The filter was immediately washed three times with […] of an ice-cooled 50 mM Tris-HCl buffer, and transferred to a vial, a scintillator (EX-H , manufactured by Wako Pure Chemical Industries, Ltd.) was added thereto, and the radioactivity on the filter was determined with a liquid scintillation counter (manufactured by Packard Instrument Co.) […]
The inhibition ratio of the test compound against the A2A receptor binding (^3 H-CGS 21680 binding) was calculated by the following equation:
Inhibition ratio (%)={1-(Amount of the binding in the presence of the test compound-Amount of the nonspecific binding)/(Amount of the total binding-Amount of the nonspecific binding)}×100
(Note) Amount of the total binding means the amount of radioactivity of ^3 H-CGS 21680 bound in the absence of the test compound. Amount of the nonspecific binding means the amount of radioactivity of ^3 H-CGS 21680 bound in the presence of 100 μM cyclopentyladenosine (CPA, manufactured by Sigma Co.) Amount of the binding in the presence of the test compound means the amount of radioactivity of ^3 H-CGS 21680 bound in the presence of the test compound at various levels of concentrations.

Our source for the inhibition values is patent US6222035A, “[1,2,4] triazolo [1,5-C] pyrimidine derivatives” (Kyowa Hakko Kogyo Co., Ltd., priority 1997, dated 2001).

Structures can show the parent of a compound that is named as a salt.

T1 sequence (P30543 whole entry): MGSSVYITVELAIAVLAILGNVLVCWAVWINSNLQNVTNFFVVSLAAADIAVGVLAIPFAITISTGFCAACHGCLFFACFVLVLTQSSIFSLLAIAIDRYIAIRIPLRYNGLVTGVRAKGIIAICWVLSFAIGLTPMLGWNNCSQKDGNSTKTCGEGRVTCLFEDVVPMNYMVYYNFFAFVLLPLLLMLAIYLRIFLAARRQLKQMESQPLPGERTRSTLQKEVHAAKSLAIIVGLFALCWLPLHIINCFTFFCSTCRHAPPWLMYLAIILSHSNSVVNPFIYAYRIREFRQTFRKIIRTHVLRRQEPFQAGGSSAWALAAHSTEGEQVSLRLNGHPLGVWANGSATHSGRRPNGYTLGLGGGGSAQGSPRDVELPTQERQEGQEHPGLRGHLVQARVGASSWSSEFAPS

For `CC(CO)N1CCN(c2cc3nc(-c4ccco4)nn3c(N)n2)CC1` (racemic) [Compound 111, (±)-5-Amino-2-(2-furyl)-7-(4-((2-hydroxy-1-methyl)ethyl)piperazinyl)[1,2,4]triazolo[1,5-c]pyrimidine], the inhibition at 0.1 µM was determined as 52%.

Regarding `COc1ccc(CNc2nc(Sc3ccccc3)cc3nc(-c4ccco4)nn23)cc1OC` [Compound 10, 5-(3,4-Dimethoxybenzylamino)-2-(2-furyl)-7-phenylthio[1,2,4]triazolo[1,5-c]pyrimidine], the inhibition at 0.1 µM is 54% and the inhibition at 0.01 µM was determined as 16%.

Regarding `COc1cc(OC)cc(Oc2cc3nc(-c4ccco4)nn3c(N)n2)c1` [Compound 33, 5-Amino-7-(3,5-dimethoxyphenoxy)-2-(2-furyl)[1,2,4]triazolo[1,5-c]pyrimidine], the inhibition at 0.1 µM was 86% and the inhibition at 0.01 µM turned out to be 46%.

On to `Nc1nc(N2CCN(Cc3ccc4c(c3)OCO4)CC2)cc2nc(-c3ccco3)nn12` [Compound 66, 5-Amino-2-(2-furyl)-7-(4-piperonylpiperazinyl)[1,2,4]triazolo[1,5-c]pyrimidine], for which the inhibition at 0.1 µM is 79% and the inhibition at 0.01 µM was found to be 20%.

Turning to `COc1ccc(CN2CCN(c3cc4nc(-c5ccco5)nn4c(N)n3)CC2)cc1OC` [Compound 67, 5-Amino-7-[4-(3,4-dimethoxybenzyl)piperazinyl]-2-(2-furyl)[1,2,4]triazolo[1,5-c]pyrimidine], the inhibition at 0.1 µM came out at 77% and the inhibition at 0.01 µM is 39%.

`Nc1nc(N2CCN(Cc3ccccc3Cl)CC2)cc2nc(-c3ccco3)nn12` [Compound 68, 5-Amino-7-[4-(2-chlorobenzyl)piperazinyl]-2-(2-furyl)[1,2,4]triazolo[1,5-c]pyrimidine]: the inhibition at 0.1 µM stood at 90% and the inhibition at 0.01 µM was 59%.

As to `Nc1nc(N2CCN(Cc3cccc(Cl)c3)CC2)cc2nc(-c3ccco3)nn12` [Compound 69, 5-Amino-7-[4-(3-chlorobenzyl)piperazinyl]-2-(2-furyl)[1,2,4]triazolo[1,5-c]pyrimidine], the inhibition at 0.1 µM was found to be 62% and the inhibition at 0.01 µM was determined as 44%.

As to `Nc1nc(N2CCN(Cc3cccnc3)CC2)cc2nc(-c3ccco3)nn12` [Compound 70, 5-Amino-2-(2-furyl)-7-[4-(3-picolyl)piperazinyl][1,2,4]triazolo[1,5-c]pyrimidine], the inhibition at 0.1 µM was 66% and the inhibition at 0.01 µM is 17%.

On to `Nc1nc(N2CCN(Cc3ccncc3)CC2)cc2nc(-c3ccco3)nn12` [Compound 71, 5-Amino-2-(2-furyl)-7-[4-(4-picolyl)piperazinyl][1,2,4]triazolo[1,5-c]pyrimidine], for which the inhibition at 0.1 µM is 73% and the inhibition at 0.01 µM amounted to 29%.

`Nc1nc(N2CCN(CC3CCCCC3)CC2)cc2nc(-c3ccco3)nn12` [Compound 72, 5-Amino-7-(4-cyclohexylmethylpiperazinyl)-2-(2-furyl)[1,2,4]triazolo[1,5-c]pyrimidine]: the inhibition at 0.1 µM was 66% and the inhibition at 0.01 µM stood at 10%.

As for `CC(c1ccccc1)N1CCN(c2cc3nc(-c4ccco4)nn3c(N)n2)CC1` (stereo not drawn) [Compound 73, 5-Amino-2-(2-furyl)-7-[4-(1-phenylethyl)piperazinyl][1,2,4]triazolo[1,5-c]pyrimidine], the inhibition at 0.1 µM came to 86% and the inhibition at 0.01 µM came out at 51%.

For `COc1ccc(CCN2CCN(c3cc4nc(-c5ccco5)nn4c(N)n3)CC2)cc1OC` [Compound 85, 5-Amino-7-(4-(2-(3,4-dimethoxyphenyl)ethyl)piperazinyl)-2-(2-furyl)[1,2,4]triazolo[1,5-c]pyrimidine], the inhibition at 0.1 µM was 80%.

Turning to `Nc1nc(N2CCN(c3nc4ccccc4o3)CC2)cc2nc(-c3ccco3)nn12` [Compound 94, 5-Amino-7-(4-(2-benzoxazolyl)piperazinyl)-2-(2-furyl)[1,2,4]triazolo[1,5-c]pyrimidine], the inhibition at 0.1 µM amounted to 37%.

`Nc1nc(N2CCN(CCCOCc3ccccc3)CC2)cc2nc(-c3ccco3)nn12` [Compound 102, 5-Amino-7-(4-(3-benzyloxypropyl)piperazinyl)-2-(2-furyl)[1,2,4]triazolo[1,5-c]pyrimidine hydrochloride]: the inhibition at 0.1 µM is 72%.

For `COCCN1[C@H](C)CN(c2cc3nc(-c4ccco4)nn3c(N)n2)C[C@@H]1C` [Compound 117, 5-Amino-7-(cis-3,5-dimethyl-4-(2-methoxyethyl)piperazinyl)-2-(2-furyl)[1,2,4]triazolo[1,5-c]pyrimidine], the inhibition at 0.1 µM was found to be 38%.

As for `C[C@@H]1CN(c2cc3nc(-c4ccco4)nn3c(N)n2)C[C@H](C)N1CCCc1ccccc1` [Compound 119, 5-Amino-7-(cis-3,5-dimethyl-4-(3-phenylpropyl)piperazinyl)-2-(2-furyl)[1,2,4]triazolo[1,5-c]pyrimidine], the inhibition at 0.1 µM is 51%.

For the compound `Nc1nc(SCc2ccccn2)cc2nc(-c3ccco3)nn12` [Compound 182, 5-Amino-2-(2-furyl)-7-(2-picolylthio)[1,2,4]triazolo[1,5-c]pyrimidine], the inhibition at 0.1 µM came to 82%.

With `Nc1nc(SCc2ccccc2)cc2nc(-c3ccco3)nn12` [Compound 183, 5-Amino-7-benzylthio-2-(2-furyl)[1,2,4]triazolo[1,5-c]pyrimidine], the inhibition at 0.1 µM was determined as 82%.

Consider `Cc1ccc(CSc2cc3nc(-c4ccco4)nn3c(N)n2)cc1` [Compound 186, 5-Amino-2-(2-furyl)-7-(4-methylbenzylthio)[1,2,4]triazolo[1,5-c]pyrimidine], for which the inhibition at 0.1 µM was found to be 52%.

On to `Nc1nc(SCc2ccccc2[N+](=O)[O-])cc2nc(-c3ccco3)nn12` [Compound 194, 5-Amino-2-(2-furyl)-7-(2-nitrobenzylthio)[1,2,4]triazolo[1,5-c]pyrimidine], for which the inhibition at 0.1 µM is 75%.
